Data on 29 compounds can be found in patent publication US11439622B2 (OXFORD UNIVERSITY INNOVATION LIMITED, priority 2015, dated 2022).

What all share (assay type): biochemical
In test [1] the target is VIM-2 (Veronese metallo-β-lactamase-2) (Escherichia coli, UniProt Q5U7L7). In words: Enzyme inhibition assay, VIM-2. The settings on record: read-out: pIC50 VIM-2 (converted). The procedure:
(§1) The biological activity of the compounds of the present invention was tested using standard assay protocols.^7 The following representative enzymes NDM-1 (New Delhi metallo-β-lactamase-1), IMP-1 (Imipenemase-1) and VIM-2 (Veronese metallo-β-lactamase-2) were selected from different clinically relevant B1 metallo-β-lactamases.

The target of test [2] is NDM-1 (New Delhi metallo-β-lactamase-1) (Klebsiella pneumoniae, UniProt C7C422). Briefly: Enzyme inhibition assay, NDM-1. The settings on record: for IC50: read-out: pIC50 NDM-1 (converted). Here is the method: as §1
Another test has as its target IMP-1 (Imipenemase-1) (Serratia marcescens, UniProt P52699). Briefly: Enzyme inhibition assay, IMP-1. Particulars: read-out: pIC50 IMP-1 (converted). Here is the method:
as §1

Where only a bound is given, the exact number is not on record here.

Chain of NDM-1 (New Delhi metallo-β-lactamase-1) (C7C422 29-270, looked up, species assumed): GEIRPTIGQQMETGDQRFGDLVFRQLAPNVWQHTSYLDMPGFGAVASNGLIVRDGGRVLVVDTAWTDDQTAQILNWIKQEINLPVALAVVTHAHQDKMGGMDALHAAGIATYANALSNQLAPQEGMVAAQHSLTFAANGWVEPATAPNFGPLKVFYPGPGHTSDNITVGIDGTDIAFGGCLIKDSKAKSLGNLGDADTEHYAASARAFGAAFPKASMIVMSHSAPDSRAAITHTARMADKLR
Chain of IMP-1 (Imipenemase-1) (P52699 19-246, looked up, species assumed): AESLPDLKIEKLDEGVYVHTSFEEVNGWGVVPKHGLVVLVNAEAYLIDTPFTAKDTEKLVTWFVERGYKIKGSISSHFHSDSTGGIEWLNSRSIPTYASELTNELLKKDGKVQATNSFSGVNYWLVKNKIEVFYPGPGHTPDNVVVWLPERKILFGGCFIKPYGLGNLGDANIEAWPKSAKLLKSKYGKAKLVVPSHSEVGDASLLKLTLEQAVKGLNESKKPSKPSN

Consider `O=C(O)c1[nH]c2c(F)cccc2c1-c1ccc(F)cc1` [Example 112, 7-fluoro-3-(4-fluorophenyl)-1H-indole-2-carboxylic acid], for which the IC50 is 7940 nM in test [1] and 1580 nM in test [2].

In the case of `Cc1cc(C)cc(-c2c(C(=O)O)[nH]c3c(C)cccc23)c1` [Example 38, 3-(3,5-dimethylphenyl)-7-methyl-1H-indole-2-carboxylic acid], the IC50 was 158 nM in test [1] and 39.8 nM in test [2].

As to `O=C(O)c1[nH]c2ccccc2c1-c1ccccc1` [Example 109, 3-phenyl-1H-indole-2-carboxylic acid], in test [2], the IC50 was 3160 nM.

In the case of `CC(=O)NCc1ccc(-c2c(C(=O)O)[nH]c3c(C(C)C)cccc23)cc1` [Example 90, 3-(4-(acetamidomethyl)phenyl)-7-isopropyl-1H-indole-2-carboxylic acid], the IC50 was 61.7 nM at IMP-1 (Imipenemase-1) and 12.6 nM in test [2].

Consider `Cc1cccc2c(-c3cccc(S(N)(=O)=O)c3)c(C(=O)O)[nH]c12` [Example 14, 7-methyl-3-(3-sulfamoylphenyl)-1H-indole-2-carboxylic acid], for which the IC50 in test [1] was 794 nM; in test [2], 50.1 nM.

Turning to `CC(C)c1cccc2c(-c3ccc(S(=O)(=O)N(C)C)cc3)c(C#N)[nH]c12` [Example 126, 4-(2-cyano-7-isopropyl-1H-indol-3-yl)-N,N-dimethylbenzenesulfonamide], the “pIC50 NDM-1” value in test [2] is reported as “N.I”.

For `CC(C)c1cccc2c(-c3ccc(N4CCOCC4)nc3)c(C(=O)O)[nH]c12` [Example 98, 7-isopropyl-3-(6-morpholinopyridin-3-yl)-1H-indole-2-carboxylic acid], the IC50 on IMP-1 (Imipenemase-1) was 219 nM; in test [2], 6.76 nM.

Turning to `CC(C)c1cccc2c(-c3ccc(Cn4cnnn4)cc3)c(C(=O)O)[nH]c12` [Example 100, 3-(4-((1H-tetrazol-1-yl)methyl)phenyl)-7-isopropyl-1H-indole-2-carboxylic acid], the values for the IC50 (at IMP-1 (Imipenemase-1); in test [2]) were 22.4 nM and 15.8 nM, respectively.

Consider `CC(C)c1cccc2c(-c3ccc(C(=O)N(C)C)cc3Cl)c(C(=O)O)[nH]c12` [Example 101, 3-(2-chloro-4-(dimethylcarbamoyl)phenyl)-7-isopropyl-1H-indole-2-carboxylic acid], for which the IC50 at IMP-1 (Imipenemase-1) was 1550 nM; in test [2] it was 15.8 nM.

With `Cc1cccc2c(-c3ccccc3Cl)c(C(=O)O)[nH]c12` [Example 39, 3-(2-chlorophenyl)-7-methyl-1H-indole-2-carboxylic acid], the IC50 in test [1] and in test [2] was 126 nM throughout.

With `CC(C)c1cccc2c(-c3ccc(S(=O)(=O)N(C)C)cc3)c(C(=O)Nc3ncco3)[nH]c12` [Example 128, 3-(4-(N,N-dimethylsulfamoyl)phenyl)-7-isopropyl-N-(oxazol-2-yl)-1H-indole-2-carboxamide], in test [2], the IC50 is 214 nM.

`CC(C)c1cccc2c(-c3ccc(CN(C)C)cc3)c(C(=O)O)[nH]c12` [Example 97, 3-(4-((dimethylamino)methyl)phenyl)-7-isopropyl-1H-indole-2-carboxylicacid]: the values for the IC50 (on IMP-1 (Imipenemase-1); in test [2]) were 437 nM and 10 nM, respectively.

In the case of `Cc1ccc(-c2c(C(=O)O)[nH]c3c(C(C)C)cccc23)s1` [Example 89, 7-isopropyl-3-(5-methylthiophen-2-yl)-1H-indole-2-carboxylic acid], the IC50 on IMP-1 (Imipenemase-1) was 21.4 nM; in test [2], 26.9 nM.

Take `Cc1cccc2c(I)c(C(=O)O)[nH]c12` [Example 46, 3-iodo-7-methyl-1H-indole-2-carboxylic acid]: the IC50 in test [2] was 631 nM.

With `Cc1cccc2c(-c3ccc(Cl)cc3)c(C(=O)O)n(C)c12` [Example 35, 3-(4-chlorophenyl)-1,7-dimethyl-indole-2-carboxylic acid], the IC50 in test [2] was 501 nM.

For `CNC(=O)c1ccc(-c2c(C(=O)O)[nH]c3c(C(C)C)cccc23)cc1` [Example 87, 7-isopropyl-3-(4-(methylcarbamoyl)phenyl)-1H-indole-2-carboxylic acid], the IC50 at IMP-1 (Imipenemase-1) was 77.6 nM; in test [2], 12.6 nM.

In the case of `CC(C)c1cccc2c(-c3ccc(S(=O)(=O)N4CCOCC4)cc3)c(C(=O)O)[nH]c12` [Example 95, 7-isopropyl-3-(4-(morpholinosulfonyl)phenyl)-1H-indole-2-carboxylicacid], the IC50 on IMP-1 (Imipenemase-1) was 24 nM; in test [2], 2.69 nM.

As for `CC(C)c1cccc2c(-c3ccc(S(=O)(=O)N(C)C)cc3)c(C(N)=O)[nH]c12` [Example 125, 3-(4-(N,N-dimethylsulfamoyl)phenyl)-7-isopropyl-1H-indole-2-carboxamide], the “pIC50 NDM-1” value in test [2] is “N.I”.

Consider `Cc1cccc2c(C3CCNCC3)c(C(=O)O)[nH]c12` [Example 118, 7-methyl-3-(piperidin-4-yl)-1H-indole-2-carboxylic acid], for which the results for the IC50 (at IMP-1 (Imipenemase-1); in test [2]) were over 100000 nM and 15800 nM, respectively.

On to `CC(C)c1cccc2c(-c3ccc(S(=O)(=O)N4CCCC4)cc3)c(C(=O)O)[nH]c12` [Example 99, 7-isopropyl-3-(4-(pyrrolidin-1-ylsulfonyl)phenyl)-1H-indole-2-carboxylic acid], for which the figures for the IC50 (at IMP-1 (Imipenemase-1); in test [2]) were 8.32 nM and 0.851 nM, respectively.

For `Cc1cccc2c(Br)c(C(=O)O)[nH]c12` [Example 115, 3-bromo-7-methyl-1H-indole-2-carboxylic acid], the IC50 in test [2] is 1580 nM.

Turning to `Cc1cccc2c(C3=CCCC3)c(C(=O)O)[nH]c12` [Example 27, 3-(cyclopent-1-en-1-yl)-7-methyl-1H-indole-2-carboxylic acid], the IC50 in test [2] is 79.4 nM.

Consider `Cc1cccc2cc(C(=O)O)[nH]c12` [Example 114, 7-methyl-1H-indole-2-carboxylic acid], for which the IC50 in test [2] is 3160 nM.

As for `CS(=O)(=O)c1ccc(NNC(=O)c2[nH]c3ccccc3c2-c2ccccc2)cc1` [Example 113, N′-(4-(methylsulfonyl)phenyl)-3-phenyl-1H-indole-2-carbohydrazide], the IC50 in test [2] is 7940 nM.

On to `Cc1cccc2c(-c3ccc(F)cc3)c(C(=O)NNc3ccc(S(C)(=O)=O)cc3)[nH]c12` [Example 110, 3-(4-fluorophenyl)-7-methyl-N′-(4-(methylsulfonyl)phenyl)-1H-indole-2-carbohydrazide], for which the IC50 in test [2] was 2000 nM.

With `CN(C)C(=O)c1ccc(-c2c(C(=O)O)[nH]c3c(C(C)(C)C)cccc23)cc1` [Example 92, 7-(tert-butyl)-3-(4-(dimethylcarbamoyl)phenyl)-1H-indole-2-carboxylic acid], the IC50 at IMP-1 (Imipenemase-1) is 79.4 nM; in test [2], 53.7 nM.

Take `O=C(O)c1[nH]c2c(C(F)(F)F)cccc2c1-c1ccc(F)cc1` [Example 51, 3-(4-fluorophenyl)-7-(trifluoromethyl)-1H-indole-2-carboxylic acid]: the IC50 is 2000 nM on IMP-1 (Imipenemase-1) and 251 nM in test [2].

For `CN(C)S(=O)(=O)c1ccc(-c2c(C(=O)O)[nH]c3c(C(C)(C)C)cccc23)cc1` [Example 93, 7-(tert-butyl)-3-(4-(N,N-dimethylsulfamoyl)phenyl)-1H-indole-2-carboxylic acid], the IC50 at IMP-1 (Imipenemase-1) is 85.1 nM; in test [2], 79.4 nM.

As for `CC(C)c1cccc2c(-c3ccc(CNS(C)(=O)=O)cc3)c(C(=O)O)[nH]c12` [Example 96, 7-isopropyl-3-(4-(methylsulfonamidomethyl)phenyl)-1H-indole-2-carboxylic acid], the figures for the IC50 (on IMP-1 (Imipenemase-1); in test [2]) were 7.76 nM and 3.98 nM, respectively.
